From patent US11020399B2, “Intermediates useful in the synthesis of compounds as modulators of protein kinases” (Rhizen Pharmaceuticals SA, priority 2011, dated 2021) come the findings set out here.

In one data set the target is PI3kα (Homo sapiens, UniProt P42336). As to the kind of experiment: Fluorescent (HTRF) determination of PI3 kinase enzyme activity, PI3Kα. The data set is classed as biochemical. The following applies: 1 uM. A digest of the protocol: (§1)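 HTRF detection of PIP3 from PIP2 (1.38 μM in reaction mix) with 10 mM MgCl2, 5 mM DTT; compound preincubated with enzyme 10 min, then ATP (400 μM addition) 30 min at room temperature. Percent inhibition versus blank and enzyme controls at 1 μM (α, β) and 0.3 or 0.1 μM (γ, δ); IC50 also fitted.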
PI3kα, sequence (P42336 whole entry): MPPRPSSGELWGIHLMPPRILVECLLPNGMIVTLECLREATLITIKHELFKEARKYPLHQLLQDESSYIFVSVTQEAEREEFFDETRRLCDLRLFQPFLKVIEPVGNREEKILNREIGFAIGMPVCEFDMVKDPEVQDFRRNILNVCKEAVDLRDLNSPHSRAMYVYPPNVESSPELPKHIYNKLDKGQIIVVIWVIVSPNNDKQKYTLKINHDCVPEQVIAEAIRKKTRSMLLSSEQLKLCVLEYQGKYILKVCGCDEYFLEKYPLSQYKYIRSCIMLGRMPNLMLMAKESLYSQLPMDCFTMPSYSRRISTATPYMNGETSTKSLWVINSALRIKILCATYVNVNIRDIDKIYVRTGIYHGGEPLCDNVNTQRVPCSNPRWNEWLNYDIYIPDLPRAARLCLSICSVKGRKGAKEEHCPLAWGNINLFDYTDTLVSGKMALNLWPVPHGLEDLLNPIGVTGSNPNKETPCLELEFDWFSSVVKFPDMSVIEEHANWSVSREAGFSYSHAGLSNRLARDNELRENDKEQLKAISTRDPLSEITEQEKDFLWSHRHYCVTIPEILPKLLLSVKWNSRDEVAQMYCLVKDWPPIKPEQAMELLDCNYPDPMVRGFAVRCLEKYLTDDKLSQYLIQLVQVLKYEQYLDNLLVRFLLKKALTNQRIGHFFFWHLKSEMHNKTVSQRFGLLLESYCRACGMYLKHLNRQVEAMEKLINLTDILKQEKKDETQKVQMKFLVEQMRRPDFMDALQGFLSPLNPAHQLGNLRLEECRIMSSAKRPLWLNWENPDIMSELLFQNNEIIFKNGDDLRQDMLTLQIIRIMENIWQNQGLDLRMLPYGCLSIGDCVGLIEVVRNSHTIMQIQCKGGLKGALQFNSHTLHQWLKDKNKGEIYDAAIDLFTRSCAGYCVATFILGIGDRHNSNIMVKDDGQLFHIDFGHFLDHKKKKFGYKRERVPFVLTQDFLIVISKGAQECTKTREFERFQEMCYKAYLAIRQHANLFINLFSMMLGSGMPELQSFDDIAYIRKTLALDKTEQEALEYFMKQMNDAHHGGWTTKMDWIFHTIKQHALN
PI3kα, sequence (P27986 whole entry partner): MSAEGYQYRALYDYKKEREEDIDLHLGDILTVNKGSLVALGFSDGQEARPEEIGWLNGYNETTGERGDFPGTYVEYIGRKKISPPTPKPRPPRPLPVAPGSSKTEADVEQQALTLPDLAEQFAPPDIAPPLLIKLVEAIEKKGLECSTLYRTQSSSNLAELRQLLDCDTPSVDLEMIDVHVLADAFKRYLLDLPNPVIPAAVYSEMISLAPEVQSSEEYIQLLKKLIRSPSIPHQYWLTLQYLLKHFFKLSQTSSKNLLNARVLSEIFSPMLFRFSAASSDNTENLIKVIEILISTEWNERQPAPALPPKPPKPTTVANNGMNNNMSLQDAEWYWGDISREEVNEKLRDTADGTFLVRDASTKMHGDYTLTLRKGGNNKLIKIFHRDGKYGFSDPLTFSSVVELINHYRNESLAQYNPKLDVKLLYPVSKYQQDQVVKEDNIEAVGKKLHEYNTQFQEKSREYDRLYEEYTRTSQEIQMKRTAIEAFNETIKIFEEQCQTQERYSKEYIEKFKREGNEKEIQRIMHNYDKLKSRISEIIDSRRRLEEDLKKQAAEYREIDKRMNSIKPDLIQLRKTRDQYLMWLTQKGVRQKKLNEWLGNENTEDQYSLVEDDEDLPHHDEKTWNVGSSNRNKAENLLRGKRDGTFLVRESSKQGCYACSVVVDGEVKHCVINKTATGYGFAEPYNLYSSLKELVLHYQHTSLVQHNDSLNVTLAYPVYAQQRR
Background: In TR-FRET formats the signal depends on donor and acceptor labels being close together.

A further data set addresses PI3kγ (Homo sapiens, UniProt P48736). Briefly: Fluorescent (HTRF) determination of PI3 kinase enzyme activity, PI3Kγ. In kind it is biochemical. As to conditions: for inhibition at 0.1 µM / % inhibition (PI3kγ) 100 nM: 100 nM (Examples 60-137); for inhibition at 0.3 µM: 300 nM (Examples 1-59); for % inhibition (PI3kγ) 100 nM: 0.1 µM. A digest of the protocol:
as §1

The target of the next data set is PI3kβ (Homo sapiens, UniProt P42338). Briefly: Fluorescent (HTRF) determination of PI3 kinase enzyme activity, PI3Kβ. In kind it is biochemical. The following applies: 1 uM. A digest of the protocol:
as §1

Another data set concerns the target PI3kδ (Homo sapiens, UniProt O00329). As to the kind of experiment: Fluorescent (HTRF) determination of PI3 kinase enzyme activity, PI3Kδ. The data set is classed as biochemical. As to conditions: for inhibition at 0.1 µM / % inhibition (PI3kδ) 100 nM: 100 nM (Examples 60-137); for inhibition at 0.3 µM: 300 nM (Examples 1-59); for % inhibition (PI3kδ) 100 nM: 0.1 µM. An outline of the steps:
as §1

PI3kβ, sequence (P42338 whole entry): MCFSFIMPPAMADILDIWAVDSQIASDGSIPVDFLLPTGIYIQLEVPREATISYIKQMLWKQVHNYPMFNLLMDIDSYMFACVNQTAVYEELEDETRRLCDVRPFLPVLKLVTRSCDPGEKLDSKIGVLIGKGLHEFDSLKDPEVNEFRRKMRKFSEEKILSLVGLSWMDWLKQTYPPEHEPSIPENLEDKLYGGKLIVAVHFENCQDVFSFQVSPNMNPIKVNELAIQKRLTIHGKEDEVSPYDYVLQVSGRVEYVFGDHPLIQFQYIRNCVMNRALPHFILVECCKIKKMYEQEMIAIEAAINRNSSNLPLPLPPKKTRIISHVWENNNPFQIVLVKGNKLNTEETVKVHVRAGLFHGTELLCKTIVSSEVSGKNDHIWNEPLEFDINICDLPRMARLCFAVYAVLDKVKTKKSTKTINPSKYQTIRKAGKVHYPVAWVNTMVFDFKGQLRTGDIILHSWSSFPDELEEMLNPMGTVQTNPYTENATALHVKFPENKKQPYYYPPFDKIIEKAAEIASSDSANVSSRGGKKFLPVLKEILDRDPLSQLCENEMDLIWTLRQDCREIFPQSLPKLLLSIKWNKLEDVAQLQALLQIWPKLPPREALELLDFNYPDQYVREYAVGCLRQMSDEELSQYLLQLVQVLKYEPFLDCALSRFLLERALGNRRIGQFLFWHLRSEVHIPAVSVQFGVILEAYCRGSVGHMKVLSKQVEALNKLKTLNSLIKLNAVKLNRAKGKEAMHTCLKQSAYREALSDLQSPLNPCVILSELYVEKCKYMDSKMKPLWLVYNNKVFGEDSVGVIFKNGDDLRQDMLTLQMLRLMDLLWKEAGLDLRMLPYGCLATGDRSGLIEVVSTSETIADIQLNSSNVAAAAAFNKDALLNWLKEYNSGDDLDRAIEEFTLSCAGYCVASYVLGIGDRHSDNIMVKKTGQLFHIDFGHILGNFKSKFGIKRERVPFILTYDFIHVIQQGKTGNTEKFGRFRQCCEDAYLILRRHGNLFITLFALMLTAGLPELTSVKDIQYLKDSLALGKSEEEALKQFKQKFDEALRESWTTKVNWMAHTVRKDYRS
PI3kβ, sequence (P27986 whole entry partner): as the sequence (P27986 whole entry partner) above
PI3kγ, sequence (P48736 whole entry): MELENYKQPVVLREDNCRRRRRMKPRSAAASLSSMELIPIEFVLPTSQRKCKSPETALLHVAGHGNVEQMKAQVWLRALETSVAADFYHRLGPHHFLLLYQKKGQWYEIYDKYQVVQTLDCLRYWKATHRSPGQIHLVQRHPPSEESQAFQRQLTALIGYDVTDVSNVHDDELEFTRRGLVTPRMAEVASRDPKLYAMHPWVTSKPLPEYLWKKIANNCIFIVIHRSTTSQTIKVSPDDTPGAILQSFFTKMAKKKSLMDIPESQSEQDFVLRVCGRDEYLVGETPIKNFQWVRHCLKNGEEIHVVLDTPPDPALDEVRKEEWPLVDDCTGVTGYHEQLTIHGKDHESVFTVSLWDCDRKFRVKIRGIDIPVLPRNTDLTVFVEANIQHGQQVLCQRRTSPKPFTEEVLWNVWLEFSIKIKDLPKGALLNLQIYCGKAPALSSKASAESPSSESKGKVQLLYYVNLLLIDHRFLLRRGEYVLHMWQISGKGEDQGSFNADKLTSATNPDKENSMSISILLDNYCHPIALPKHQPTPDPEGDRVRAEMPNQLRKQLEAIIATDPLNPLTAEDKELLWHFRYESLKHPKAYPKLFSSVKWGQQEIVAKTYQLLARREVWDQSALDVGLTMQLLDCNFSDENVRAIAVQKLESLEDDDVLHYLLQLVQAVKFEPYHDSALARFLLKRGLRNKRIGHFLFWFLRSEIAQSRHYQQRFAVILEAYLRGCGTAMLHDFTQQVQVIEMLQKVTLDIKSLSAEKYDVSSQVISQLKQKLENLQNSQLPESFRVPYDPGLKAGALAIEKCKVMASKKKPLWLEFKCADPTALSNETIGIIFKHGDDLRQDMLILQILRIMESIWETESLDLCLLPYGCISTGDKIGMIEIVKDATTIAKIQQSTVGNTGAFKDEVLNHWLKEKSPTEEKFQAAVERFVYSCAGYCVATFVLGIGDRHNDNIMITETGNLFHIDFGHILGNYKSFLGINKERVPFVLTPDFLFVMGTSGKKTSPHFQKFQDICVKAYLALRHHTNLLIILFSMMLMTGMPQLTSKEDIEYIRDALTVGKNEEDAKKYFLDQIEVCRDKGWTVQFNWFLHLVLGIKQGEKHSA
PI3kδ, sequence (O00329 whole entry): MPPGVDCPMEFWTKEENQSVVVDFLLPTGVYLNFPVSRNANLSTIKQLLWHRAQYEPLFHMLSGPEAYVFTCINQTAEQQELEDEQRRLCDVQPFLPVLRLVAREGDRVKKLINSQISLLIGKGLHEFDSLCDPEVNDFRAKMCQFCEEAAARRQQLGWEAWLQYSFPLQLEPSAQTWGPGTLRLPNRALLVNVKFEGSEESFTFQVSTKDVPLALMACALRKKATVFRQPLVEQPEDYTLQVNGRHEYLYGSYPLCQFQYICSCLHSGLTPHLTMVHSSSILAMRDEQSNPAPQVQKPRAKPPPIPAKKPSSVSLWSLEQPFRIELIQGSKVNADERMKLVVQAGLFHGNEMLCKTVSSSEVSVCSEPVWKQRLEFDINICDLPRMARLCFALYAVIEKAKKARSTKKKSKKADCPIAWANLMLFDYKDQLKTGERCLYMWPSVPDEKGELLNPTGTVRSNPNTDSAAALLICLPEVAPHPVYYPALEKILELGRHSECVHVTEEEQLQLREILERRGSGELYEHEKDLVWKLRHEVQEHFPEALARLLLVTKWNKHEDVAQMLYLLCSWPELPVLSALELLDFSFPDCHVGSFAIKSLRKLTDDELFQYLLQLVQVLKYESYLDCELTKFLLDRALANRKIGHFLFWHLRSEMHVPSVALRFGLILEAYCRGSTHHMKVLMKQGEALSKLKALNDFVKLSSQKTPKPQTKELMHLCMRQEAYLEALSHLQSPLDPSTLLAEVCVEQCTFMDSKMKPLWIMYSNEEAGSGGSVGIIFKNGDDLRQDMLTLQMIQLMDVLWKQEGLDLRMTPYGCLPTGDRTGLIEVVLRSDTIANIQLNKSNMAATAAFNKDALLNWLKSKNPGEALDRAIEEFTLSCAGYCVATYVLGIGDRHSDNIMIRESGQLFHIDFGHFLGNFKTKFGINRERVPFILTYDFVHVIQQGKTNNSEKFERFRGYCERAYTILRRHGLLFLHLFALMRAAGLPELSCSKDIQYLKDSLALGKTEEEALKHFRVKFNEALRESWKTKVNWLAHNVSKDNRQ
PI3kδ, sequence (P27986 whole entry partner): as the sequence (P27986 whole entry partner) above

Broadly, the inhibition is the share of the control response that was lost under treatment. A high value points to strong suppression. For orientation: melting point means the temperature of the solid-liquid transition. In turn, `CC(=O)Nc1ccc(-c2nn(C(C)c3oc4cccc(F)c4c(=O)c3-c3cccc(F)c3)c3ncnc(N)c23)cc1F` (stereo not drawn) [Example 82, N-(4-(4-amino-1-(1-(5-fluoro-3-(3-fluorophenyl)-4-oxo-4H-chromen-2-yl)ethyl)-1H-pyrazolo[3,4-d]pyrimidin-3-yl)-2-fluorophenyl)acetamide] registered a melting point of 220 to 223 °C. At PI3kα, this compound had an inhibition at 1 µM of 25 to 50%. The inhibition at 0.1 µM at PI3kγ lay in the range of 25 to 50%. This compound also registered an inhibition at 1 µM against PI3kβ of 25 to 50%. Besides, the inhibition at 0.1 µM on PI3kδ lay in the range of 25 to 50%.

Turning to `CC(C)Cc1ccc(-c2nn(C(C)c3oc4cccc(F)c4c(=O)c3-c3cccc(F)c3)c3ncnc(N)c23)cc1` (stereo not drawn) [Example 49, 2-(1-(4-amino-3-(4-isobutylphenyl)-1H-pyrazolo[3,4-d]pyrimidin-1-yl)ethyl)-5-fluoro-3-(3-fluorophenyl)-4H-chromen-4-one], the melting point lay in the range of 221 to 223 °C. On PI3kα, this compound returned an inhibition at 1 µM of 50 to 75%. At PI3kγ, this compound showed an inhibition at 0.3 µM of 50 to 75%. The inhibition at 1 µM against PI3kβ lay within 50 to 75%. Also, on PI3kδ, the inhibition at 0.3 µM lay within 50 to 75%.

The compound `CC(c1oc2cccc(F)c2c(=O)c1-c1cccc(F)c1)n1nc(-c2ccc(OC3COC3)c(F)c2)c2c(N)ncnc21` (stereo not drawn) [Example 46, 2-(1-(4-amino-3-(3-fluoro-4-(oxetan-3-yloxy)phenyl)-1H-pyrazolo[3,4-d]pyrimidin-1-yl)ethyl)-5-fluoro-3-(3-fluorophenyl)-4H-chromen-4-one] showed a melting point of 235 to 237 °C. On PI3kα, this compound came in with an inhibition at 1 µM of 0 to 25%. Moreover, the inhibition at 0.3 µM at PI3kγ lay within 50 to 75%. This compound also gave an inhibition at 1 µM against PI3kβ of 50 to 75%. For the same compound, on PI3kδ, the inhibition at 0.3 µM lay in the range of 25 to 50%.

`CC(C)Oc1ncc(-c2nn(C(C)c3oc4cccc(F)c4c(=O)c3-c3cccc(F)c3)c3ncnc(N)c23)cn1` (stereo not drawn) [Example 58, 2-(1-(4-amino-3-(2-isopropoxypyrimidin-5-yl)-1H-pyrazolo[3,4-d]pyrimidin-1-yl)ethyl)-5-fluoro-3-(3-fluorophenyl)-4H-chromen-4-one]: the melting point lay in the range of 230 to 232 °C. Besides, at PI3kα, the inhibition at 1 µM is 0 to 25%. In addition, at PI3kγ, the inhibition at 0.3 µM was in the range of 25 to 50%. On PI3kβ, this compound came in with an inhibition at 1 µM of 50 to 75%. The compound further had an inhibition at 0.3 µM on PI3kδ of 50 to 75%.

Take `CC(c1oc2cccc(F)c2c(=O)c1-c1cccc(F)c1)n1cnc2c(N(C)C)ncnc21` (racemic) [Example 129, (S)/(R)-2-(1-(6-(dimethylamino)-9H-purin-9-yl)ethyl)-5-fluoro-3-(3-fluorophenyl)-4H-chromen-4-one]: the melting point fell in the range of 187 to 189 °C. For the same compound, the “% inhibition (PI3kα) 1 uM” value at PI3kα was “D (D=0 to 25%)”. Further, the “% inhibition (PI3kγ) 100 nM” value on PI3kγ is “C (C=>25 to 50%)”. Also, on PI3kβ, the “% inhibition (PI3kβ) 1 uM” value is on record as “C (C=>25 to 50%)”. Further, on PI3kδ, the “% inhibition (PI3kδ) 100 nM” value is “D (D=0 to 25%)”.

Regarding `COC(=O)c1cc(-c2nn(C(C)c3oc4cccc(F)c4c(=O)c3-c3cccc(F)c3)c3ncnc(N)c23)cs1` (stereo not drawn) [Example 61, methyl 4-(4-amino-1-(1-(5-fluoro-3-(3-fluorophenyl)-4-oxo-4H-chromen-2-yl)ethyl)-1H-pyrazolo[3,4-d]pyrimidin-3-yl)thiophene-2-carboxylate], the melting point is 227 to 230 °C. The inhibition at 1 µM on PI3kα is 25 to 50%. The inhibition at 0.1 µM on PI3kγ was in the range of 50 to 75%. The same compound returned an inhibition at 1 µM against PI3kβ of 25 to 50%. This compound had an inhibition at 0.1 µM against PI3kδ of 25 to 50%.

Consider `CC(C)Oc1ccc(-c2nn(C(C)c3oc4cccc(F)c4c(=O)c3-c3cccc(F)c3)c3ncnc(N4CCOCC4)c23)cc1F` (stereo not drawn) [Example 85, 5-fluoro-2-(1-(3-(3-fluoro-4-isopropoxyphenyl)-4-morpholino-1H-pyrazolo[3,4-d]pyrimidin-1-yl)ethyl)-3-(3-fluorophenyl)-4H-chromen-4-one], for which the melting point fell in the range of 116 to 119 °C. At PI3kα, this compound showed an inhibition at 1 µM of 0 to 25%. At PI3kγ, the “% inhibition (PI3kγ) 100 nM” value is listed as “C (C=>25 to 50%)”. Moreover, at PI3kβ, the inhibition at 1 µM is 25 to 50%. Besides, on PI3kδ, the “% inhibition (PI3kδ) 100 nM” value is listed as “C (C=>25 to 50%)”.

As for `CC(c1oc2cccc(F)c2c(=O)c1-c1cccc(F)c1)n1nc(C#CCO)c2c(N)ncnc21` (stereo not drawn) [Example 66, 2-(1-(4-amino-3-(3-hydroxyprop-1-ynyl)-1H-pyrazolo[3,4-d]pyrimidin-1-yl)ethyl)-5-fluoro-3-(3-fluorophenyl)-4H-chromen-4-one], the melting point was in the range of 220 to 222 °C. The same compound had an inhibition at 1 µM against PI3kα of 25 to 50%. The same compound displayed an inhibition at 0.1 µM against PI3kγ of 25 to 50%. On PI3kβ, this compound came in with an inhibition at 1 µM of 25 to 50%. Besides, the inhibition at 0.1 µM on PI3kδ is 25 to 50%.

Regarding `CC(Nc1ncnc2[nH]cnc12)c1oc2cccc(F)c2c(=O)c1-c1cccc(F)c1` (single isomer, unassigned; (+)) [Example 68, (+)-2-(1-(9H-purin-6-ylamino)ethyl)-5-fluoro-3-(3-fluorophenyl)-4H-chromen-4-one], the melting point lay within 194 to 197 °C. In addition, on PI3kα, the inhibition at 1 µM was in the range of 25 to 50%. Further, the “% inhibition (PI3kγ) 100 nM” value on PI3kγ is “B (B=>50 to 75%)”. Moreover, the “% inhibition (PI3kβ) 1 uM” value on PI3kβ was “B (B=>50 to 75%)”. Moreover, at PI3kδ, the “% inhibition (PI3kδ) 100 nM” value was “C (C=>25 to 50%)”.

For the compound `CC(c1oc2cccc(F)c2c(=O)c1-c1cccc(F)c1)n1nc(-c2ccc(CN3CCOCC3)s2)c2c(N)ncnc21` (stereo not drawn) [Example 76, 2-(1-(4-amino-3-(5-(morpholinomethyl)thiophen-2-yl)-1H-pyrazolo[3,4-d]pyrimidin-1-yl)ethyl)-5-fluoro-3-(3-fluorophenyl)-4H-chromen-4-one], the melting point lay in the range of 193 to 196 °C. In addition, the inhibition at 1 µM at PI3kα is 0 to 25%. The inhibition at 0.1 µM against PI3kγ lay within 25 to 50%. Moreover, on PI3kβ, the inhibition at 1 µM lay within 25 to 50%. On PI3kδ, this compound returned an inhibition at 0.1 µM of 25 to 50%.

The compound `CC(c1oc2cccc(F)c2c(=O)c1-c1cccc(F)c1)n1nc(-c2ccc(CNC(=O)OC(C)(C)C)o2)c2c(N)ncnc21` (stereo not drawn) [Example 74, tert-butyl (5-(4-amino-1-(1-(5-fluoro-3-(3-fluorophenyl)-4-oxo-4H-chromen-2-yl)ethyl)-1H-pyrazolo[3,4-d]pyrimidin-3-yl)furan-2-yl)methylcarbamate] displayed a melting point of 163 to 166 °C. Also, the inhibition at 1 µM at PI3kα lay within 0 to 25%. At PI3kγ, this compound displayed an inhibition at 0.1 µM of 25 to 50%. In addition, on PI3kβ, the inhibition at 1 µM was 25 to 50%. Also, the inhibition at 0.1 µM against PI3kδ was in the range of 50 to 75%.

`Cc1cccc2oc([C@H](C)n3nc(-c4ccc(OC(C)C)c(F)c4)c4c(N)ncnc43)c(-c3ccccc3)c(=O)c12` (single isomer, unassigned) [Example 137] gave a melting point of 208 to 210 °C. Besides, the inhibition at 1 µM at PI3kα was in the range of 0 to 25%. This compound registered an inhibition at 0.1 µM against PI3kγ of 0 to 25%. Further, the inhibition at 1 µM on PI3kβ was 50 to 75%. For the same compound, the inhibition at 0.1 µM against PI3kδ was in the range of 25 to 50%.

With `CC(C)Oc1ccc(-c2nn(C(C)c3oc4cccc(N5CCOCC5)c4c(=O)c3-c3ccccc3)c3ncnc(N)c23)cc1F` (stereo not drawn) [Example 121, 2-(1-(4-amino-3-(3-fluoro-4-isopropoxyphenyl)-1H-pyrazolo[3,4-d]pyrimidin-1-yl)ethyl)-5-morpholino-3-phenyl-4H-chromen-4-one], the melting point is 211 to 214 °C. Moreover, the inhibition at 1 µM against PI3kα is 25 to 50%. On PI3kγ, the inhibition at 0.1 µM was 50 to 75%. At PI3kβ, this compound yielded an inhibition at 1 µM of 25 to 50%. This compound also returned an inhibition at 0.1 µM at PI3kδ of 0 to 25%.

In the case of `Cc1ccc(-c2nn(C(C)c3oc4cccc(F)c4c(=O)c3-c3cccc(F)c3)c3ncnc(N)c23)s1` (stereo not drawn) [Example 62, 2-(1-(4-amino-3-(5-methylthiophen-2-yl)-1H-pyrazolo[3,4-d]pyrimidin-1-yl)ethyl)-5-fluoro-3-(3-fluorophenyl)-4H-chromen-4-one], the melting point fell in the range of 223 to 226 °C. The inhibition at 1 µM at PI3kα lay within 0 to 25%. This compound gave an inhibition at 0.1 µM at PI3kγ of 25 to 50%. For the same compound, the inhibition at 1 µM on PI3kβ lay within 50 to 75%. At PI3kδ, this compound returned an inhibition at 0.1 µM of 50 to 75%.

In turn, `CNS(=O)(=O)c1ccc(-c2nn(C(C)c3oc4cccc(F)c4c(=O)c3-c3cccc(F)c3)c3ncnc(N)c23)cc1` (stereo not drawn) [Example 52, 4-(4-amino-1-(1-(5-fluoro-3-(3-fluorophenyl)-4-oxo-4H-chromen-2-yl)ethyl)-1H-pyrazolo[3,4-d]pyrimidin-3-yl)-N-methylbenzenesulfonamide] had a melting point of 175 to 178 °C. In addition, on PI3kα, the inhibition at 1 µM fell in the range of 25 to 50%. Moreover, the inhibition at 0.3 µM at PI3kγ was 50 to 75%. Moreover, the inhibition at 1 µM at PI3kβ fell in the range of 50 to 75%. For the same compound, the inhibition at 0.3 µM on PI3kδ was in the range of 50 to 75%.
